Assay results: US20220226397A1, “SYNERGISTIC COMBINATIONS OF ARGININE-PRODUCING BACTERIA AND/OR AMMONIA-CONSUMING BACTERIA AND CHECKPOINT INHIBITORS AND METHODS OF USE THEREOF” (Synlogic Operating Company, Inc., priority 2019, published 2022)

System: MC38 tumors
Test: MC38 tumor growth and survival, oral L-arginine with or without αPD-L1
Type: in vivo, C57BL/6 WT mice
Details: s.c. MC38; L-arginine 2 g/kg oral gavage daily; αPD-L1 200 μg i.p. every second day; compared to control group
Experimental: FIGS. 1A, 1B, and 1C: 5×10^5 MC38 colon adenocarcinoma cells were injected s.c. in C57BL/6 WT mice and tumors were allowed to grow for 11 days before treatments were initiated. Control mice (n=13) received daily an oral gavage of H2O (100 μl) and every second day 200 μl of PBS i.p. The L-arginine group received daily an oral gavage of L-arginine (2 g/kg body weight in 100 μl) (n=19). The PD-L1 group received 200 μg of αPD-L1 mAb i.p. every second day (n=16). The Combo group received L-arginine (oral) and αPD-L1 (i.p.) (n=17). FIG. 1A depicts in vivo MC38 tumor growth (number of mice are indicated in the graph). Values represent mean tumor volume +/− SEM. FIG. 1C: Survival curves of different groups of mice. P values were determined by log-rank comparisons between the curves. FIG. 1B provide tumor growth curves of individual mice. P values were determined by two way ANOVA. *P<0.05, **P<0.01, ***P<0.001, ****P<0.0001, throughout.
MC38 murine colon adenocarcinoma cells were cultured in RPMI 1640 plus 10% heat-inactivated FCS, 1 mM Na-Pyruvate and 50 μM β-mercaptoethanol. Female C57BL/6 mice between the ages of 5 to 10 weeks were implanted with the MC38 cells. […] The size of tumors was measured in a blinded fashion using calipers. […] Tumors were collected, digested and tumor-infiltrating lymphocytes (TILs) were analyzed by flow cytometry.

N=C(N)NCCC[C@H](N)C(=O)O [L-arginine]
MC38 tumor growth: slightly reduced
